In ChEMBL document CHEMBL1201862, “PubChem BioAssay data set” (2004):
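Compound exposure: 48 hours, 5 concentrations, 96-well plates. GI50 is the concentration that inhibits growth by half.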 Calls of active or inactive are those of the source. No stated cut-off is given here; in the data, active = GI50 up to about 1.1 µM and inactive = higher.

Assays:
Test in all cases: NCI anticancer screen, dose series, 48 h
SF-268 = tested on: SF-268
CAKI-1 = tested on: CAKI-1
TK-10 = tested on: TK-10
NCI-H23 = tested on: NCI-H23
HOP-92 = tested on: HOP-92
SK-MEL-2 = tested on: SK-MEL-2
KM-20L2 = tested on: KM-20L2
OVCAR-8 = tested on: OVCAR-8
SK-MEL-5 = tested on: SK-MEL-5
SF-295 = tested on: SF-295
NCI-H522 = tested on: NCI-H522
NCI-H460 = tested on: NCI-H460
M14 = tested on: M14
DLD-1 = tested on: DLD-1
HCC 2998 = tested on: HCC 2998
HCT-15 = tested on: HCT-15
SNB-19 = tested on: SNB-19
HT-29 = tested on: HT-29
SF-539 = tested on: SF-539
UO-31 = tested on: UO-31
ACHN = tested on: ACHN
KM12 = tested on: KM12
OVCAR-3 = tested on: OVCAR-3
U-251 = tested on: U-251
LOX IMVI = tested on: LOX IMVI
IGROV-1 = tested on: IGROV-1
UACC-62 = tested on: UACC-62
SK-MEL-28 = tested on: SK-MEL-28
DMS-273 = tested on: DMS-273
786-0 = tested on: 786-0
HCT-116 = tested on: HCT-116
SN12C = tested on: SN12C
UACC-257 = tested on: UACC-257
OVCAR-4 = tested on: OVCAR-4
LXFL 529 = tested on: LXFL 529
M19-MEL = tested on: M19-MEL
EKVX = tested on: EKVX
HOP-62 = tested on: HOP-62
A549 = tested on: A549
SW-620 = tested on: SW-620
SK-OV-3 = tested on: SK-OV-3
OVCAR-5 = tested on: OVCAR-5
SNB-78 = tested on: SNB-78
DMS-114 = tested on: DMS-114
K562 = tested on: K562
RXF 393 = tested on: RXF 393
SNB-75 = tested on: SNB-75
RPMI-8226 = tested on: RPMI-8226
Malme-3M = tested on: Malme-3M
A498 = tested on: A498
COLO 205 = tested on: COLO 205
HL-60 = tested on: HL-60
CCRF-CEM = tested on: CCRF-CEM
MOLT-4 = tested on: MOLT-4
HOP-18 = tested on: HOP-18

`CCN(CC)C(=O)c1ccc(C)c(/N=N/N(C)C)c1` was tested, and the GI50 (SF-268) was > 100 µM (inactive), the GI50 (CAKI-1) was > 100 µM (inactive) and the GI50 (TK-10) was > 100 µM (inactive). The GI50 (NCI-H23) was > 100 µM (inactive), the GI50 (HOP-92) was > 100 µM (inactive) and the GI50 (SK-MEL-2) was > 100 µM (inactive). For the same compound, the GI50 (KM-20L2) was > 10 µM (inactive), the GI50 (OVCAR-8) was > 100 µM (inactive) and the GI50 (SK-MEL-5) was > 100 µM (inactive). For the same compound, the GI50 (SF-295) was > 100 µM (inactive), the GI50 (NCI-H522) was 44 µM (inactive) and the GI50 (NCI-H460) was > 100 µM (inactive). The GI50 (M14) was > 100 µM (inactive), the GI50 (DLD-1) was > 100 µM (inactive) and the GI50 (HCC 2998) was > 100 µM (inactive). The GI50 (HCT-15) was greater than 100 µM, the GI50 (SNB-19) was > 100 µM (inactive) and the GI50 (HT-29) was > 100 µM (inactive). The GI50 (SF-539) was > 100 µM (inactive), the GI50 (UO-31) was > 100 µM (inactive) and the GI50 (ACHN) was > 100 µM (inactive). For the same compound, the GI50 (KM12) was > 100 µM (inactive), the GI50 (OVCAR-3) was > 100 µM (inactive) and the GI50 (U-251) was > 100 µM (inactive). The GI50 (LOX IMVI) was > 100 µM (inactive), the GI50 (IGROV-1) was > 100 µM (inactive) and the GI50 (UACC-62) was > 100 µM (inactive). For the same compound, the GI50 (SK-MEL-28) was > 100 µM (inactive), the GI50 (DMS-273) was > 100 µM (inactive) and the GI50 (786-0) was > 100 µM (inactive). For the same compound, the GI50 (HCT-116) was > 100 µM (inactive), the GI50 (SN12C) was > 100 µM (inactive) and the GI50 (UACC-257) was > 100 µM (inactive). The GI50 (OVCAR-4) was > 100 µM (inactive), the GI50 (LXFL 529) was > 100 µM (inactive) and the GI50 (M19-MEL) was > 100 µM (inactive). The GI50 (EKVX) was > 100 µM (inactive), the GI50 (HOP-62) was > 100 µM (inactive) and the GI50 (A549) was > 100 µM (inactive). For the same compound, the GI50 (SW-620) was > 100 µM (inactive).
For `CCOP(=O)(OCC)/C(C#N)=C/c1cc(O)ccc1O`, the GI50 (SF-268) was > 100 µM (inactive), the GI50 (SK-OV-3) was > 100 µM (inactive) and the GI50 (NCI-H23) was > 100 µM (inactive). For the same compound, the GI50 (HOP-92) was > 100 µM (inactive), the GI50 (OVCAR-5) was > 100 µM (inactive) and the GI50 (SK-MEL-2) was > 100 µM (inactive). The GI50 (KM-20L2) was > 100 µM (inactive), the GI50 (SNB-78) was > 100 µM (inactive) and the GI50 (DMS-114) was > 100 µM (inactive). The GI50 (SF-295) was > 100 µM (inactive), the GI50 (NCI-H460) was > 100 µM (inactive) and the GI50 (M14) was > 100 µM (inactive). The GI50 (K562) was > 100 µM (inactive), the GI50 (SNB-19) was > 100 µM (inactive) and the GI50 (RXF 393) was > 100 µM (inactive). For the same compound, the GI50 (HT-29) was > 100 µM (inactive), the GI50 (SF-539) was > 100 µM (inactive) and the GI50 (UO-31) was > 100 µM (inactive). The GI50 (ACHN) was > 100 µM (inactive), the GI50 (KM12) was > 100 µM (inactive) and the GI50 (OVCAR-3) was > 100 µM (inactive). For the same compound, the GI50 (U-251) was > 100 µM (inactive), the GI50 (IGROV-1) was > 100 µM (inactive) and the GI50 (SNB-75) was 79.3 µM (inactive). For the same compound, the GI50 (UACC-62) was > 100 µM (inactive), the GI50 (SK-MEL-28) was > 100 µM (inactive) and the GI50 (HCT-116) was > 100 µM (inactive). For the same compound, the GI50 (UACC-257) was > 100 µM (inactive), the GI50 (OVCAR-4) was > 100 µM (inactive) and the GI50 (RPMI-8226) was > 100 µM (inactive). For the same compound, the GI50 (LXFL 529) was > 100 µM (inactive), the GI50 (Malme-3M) was > 100 µM (inactive) and the GI50 (M19-MEL) was > 100 µM (inactive). The GI50 (A498) was > 100 µM (inactive), the GI50 (COLO 205) was > 100 µM (inactive) and the GI50 (HOP-62) was > 100 µM (inactive).
With `O=C1c2cccc(NCCCNCCO)c2C(=O)c2cccc(NCCCNCCO)c21` the GI50 (HL-60) was 1.36 µM (inactive), the GI50 (TK-10) was 3 µM (inactive) and the GI50 (NCI-H23) was 2.99 µM (inactive). For the same compound, the GI50 (OVCAR-5) was 2.65 µM (inactive), the GI50 (SK-MEL-2) was 1.92 µM (inactive) and the GI50 (KM-20L2) was 2.34 µM (inactive). For the same compound, the GI50 (SNB-78) was 2.06 µM (inactive), the GI50 (OVCAR-8) was 1.86 µM (inactive) and the GI50 (SK-MEL-5) was 1.78 µM (inactive). For the same compound, the GI50 (NCI-H460) was 1.68 µM (inactive), the GI50 (M14) was 2.09 µM (inactive) and the GI50 (DLD-1) was 3.13 µM (inactive). For the same compound, the GI50 (HCC 2998) was 1.08 µM (active), the GI50 (HCT-15) was 7.31 µM and the GI50 (CCRF-CEM) was 1.34 µM (inactive). For the same compound, the GI50 (RXF 393) was 2.95 µM (inactive), the GI50 (HT-29) was 1.41 µM (inactive) and the GI50 (SF-539) was 1.86 µM (inactive). The GI50 (UO-31) was 9.68 µM (inactive), the GI50 (ACHN) was 1.59 µM (inactive) and the GI50 (KM12) was 1.92 µM (inactive). For the same compound, the GI50 (OVCAR-3) was 2.53 µM (inactive), the GI50 (LOX IMVI) was 2.1 µM (inactive) and the GI50 (MOLT-4) was 1.35 µM (inactive). The GI50 (IGROV-1) was 2.56 µM (inactive), the GI50 (UACC-62) was 1.76 µM (inactive) and the GI50 (SK-MEL-28) was 1.96 µM (inactive). For the same compound, the GI50 (DMS-273) was 2.02 µM (inactive), the GI50 (786-0) was 1.96 µM (inactive) and the GI50 (HCT-116) was 1.56 µM (inactive). The GI50 (SN12C) was 1.26 µM (inactive), the GI50 (UACC-257) was 3.56 µM (inactive) and the GI50 (HOP-18) was 2.67 µM (inactive). For the same compound, the GI50 (RPMI-8226) was 1.97 µM (inactive), the GI50 (A498) was 2.17 µM (inactive) and the GI50 (COLO 205) was 1.36 µM (inactive). For the same compound, the GI50 (EKVX) was 2.32 µM (inactive), the GI50 (HOP-62) was 2.43 µM (inactive) and the GI50 (A549) was 1.99 µM (inactive). The GI50 (SW-620) was 1.46 µM (inactive).
